Patent publication US20090291964A1, “Potentiators of Antibacterial Activity” (priority 2003, published 2009)
Read-outs that look alike come from different tables or passages of the source.

How the values were obtained:
Assay type in all cases: cell-based
[1] = test system: E. faecalis clinical isolates; experiment: MIC90 studies: fluoroquinolone susceptibility of clinical isolate panel with EPI; settings: Enterococcus faecalis, read-out: MIC, No EPI
Protocol: (§1) Susceptibility studies with large panels of resistant clinical isolates were performed at Focus Technologies, Herndon, Va. according to NCCLS protocols (National Committee for Clinical Laboratory Standards, supra).
(§2) To be useful in combination therapy, an EPI needs to substantially reduce the MIC of an antibiotic to within the range of clinical susceptibility. Because many different resistance mechanisms are often present in clinical isolates, including the likelihood of multiple target-based mutations in addition to efflux mutations, the barrier to antibiotic efficacy is much greater. […] Oxacillin and vancomycin MICs were also determined to identify which isolates were methicillin-resistant (S. aureus) and vancomycin-resistant (E. faecalis).

[2] = test system: S. aureus clinical isolates; experiment: as above; settings: Staphylococcus aureus
Protocol: as §1, §2

[3] = test system: S. aureus SA-K2068 (non-NorA multidrug efflux pump overproducing); experiment: microbe, parasite or virus in culture; settings: Staphylococcus aureus
Description: (§3) A variety of strains may be used in these experiments, including, but not limited to, S. aureus ATCC 29213, E. faecalis ATCC 29212, and S. pneumoniae, S. aureus strains SA-1199, SA-1199B, SA-8325-4, and SA-K2068. S. aureus ATCC 29213, E. faecalis ATCC 29212, and S. pneumoniae ATCC 10015 were obtained from the American Type Culture Collection (Manassas, Va.). S. aureus strains SA-1199 (clinical isolate, susceptible), SA-1199B (SA-1199, NorA overproducing, also has A116E GrlA mutation), SA-8325-4 (NCTC 8325 cured of prophages), SA-K2068 (SA-8325-4, non-NorA multidrug efflux pump overproducing mutation) were obtained from Glenn Kaatz (Kaatz et al., “Identification and characterization of a novel efflux-related multidrug resistance phenotype in Staphylococcus aureus”, J. Antimicrob. Chemother. 50:833-838 (2002); 1993; Kaatz et al., “Phenothiazines and thioxanthenes inhibit multidrug efflux pump activity in Staphylococcus aureus”, Antimicrob. Agents Chemother. 47:719-726, Kaatz et al., “Efflux-mediated fluoroquinolone resistance in Staphylococcus aureus. Antimicrob. Agents Chemother.”, 37:1086-1094, 1993)).
(§4) 3% sterile laked horse blood (Quad Five, Ryegate, Mont.) was added to assays for E. faecalis and S. Pneumoniae. A final concentration of 1% DMSO was present in all assays.
(§5) Recent more hydrophobic fluoroquinolones such as gatifloxacin and moxifloxacin are less well recognized by NorA; however, recently one other pump in S. aureus has been described which also recognizes hydrophobic fluoroquinolones (Kaatz et al. 2002, supra). To investigate the potential of A-106 and C-9 to block the efflux of several fluoroquinolones in cells with constituitively over-expressed efflux pumps, we used S. aureus strains SA-1199B and K2068 (Table 3). […] Kaatz et al., “Phenothiazines and thioxanthenes inhibit multidrug efflux pump activity in Staphylococcus aureus”, Antimicrob. Agents Chemother. 47:719-726 (2003).

S. aureus ATCC 29213 [4] = experiment: MIC by NCCLS microdilution, antibacterial agents with and without EPI; settings: for MIC: Staphylococcus aureus; for MIC in the presence of 4X MEC of EPI, VX-710: VX-710 100 μg/ml; for MIC in the presence of 4X MEC of EPI, VX-853: VX-853 6.25 μg/ml; for MIC in the presence of 4X MEC of EPI, reserpine: reserpine 25 μg/ml
Protocol: 3% sterile laked horse blood (Quad Five, Ryegate, Mont.) was added to assays for E. faecalis and S. Pneumoniae. A final concentration of 1% DMSO was present in all assays. […]
A-106 and C-9 were tested at their respective MECs in combination with a variety of different classes of antibiotics against S. aureus ATCC 29213 (Table 2).

S. aureus SA-8325-4 = experiment: MIC of fluoroquinolones with and without EPI; settings: Staphylococcus aureus, SA83254, read-out: MIC of antibacterial agent, EPI none
Description: as §3, §4

[5] = test system: S. aureus SA-1199 (clinical isolate, susceptible); experiment: MIC of fluoroquinolones with and without EPI; settings: Staphylococcus aureus, read-out: MIC of antibacterial agent, EPI none
Description: as §3, §4

S. aureus ATCC 29213 [6] = experiment: Minimal effective concentration (MEC) of EPI for EtBr; settings: S. aureus ATCC 29213; lowest amount of EPI which produces the maximum effect on the MIC of ethidium bromide
Protocol: The MEC was determined as the minimal concentration of EPI that produced the maximal reduction in substrate MIC.
The minimum effective concentration (MEC) for inhibition of EtBr efflux was determined in S. aureus, E. faecalis and S. pneumoniae for A-106 and C-9; reserpine was used as a comparator (Table 1).

[7] = test system: S. aureus SA-1199B (NorA overproducing); experiment: MIC of fluoroquinolones with and without EPI; settings: Staphylococcus aureus
Description: as §3, §4, §5

E. faecalis ATCC 29212 = experiment: MIC by NCCLS microdilution, EtBr/EPI with and without EPI; settings: Enterococcus faecalis, ATCC29212, read-out: MIC of EtBr without EPI
Protocol: as §4
(§6) EtBr is a general substrate for many different efflux pumps in bacteria. Markham et al., “Multiple Novel Inhibitors of the NorA Multidrug Transporter of Staphylococcus aureus”, Antimicrob. Agents Chemother. 43:2404-2408 (1999). Since EtBr is a non-specific DNA intercalator, the only known mechanism of resistance to EtBr is via efflux. Markham et al., “Multiple Novel Inhibitors of the NorA Multidrug Transporter of Staphylococcus aureus”, Antimicrob. Agents Chemother. 43:2404-2408 (1999).

S. pneumoniae ATCC 10015 = experiment: as above; settings: Streptococcus pneumoniae, ATCC10015, read-out: MIC of EtBr without EPI
Protocol: as §4, §6

[8] = read-out: MIC of antibacterial agent, EPI none
[9] = ATCC29213, antibacterial agent alone, read-out: MIC, No EPI
[10] = ATCC29213, read-out: MIC of antibacterial agent, EPI none, S. aureus ATCC 29213, no EPI
[11] = S. aureus ATCC 29213, EPIs used at the MEC, except VX-710 at 100 μg/ml
[12] = read-out: MIC of Gatifloxacin without EPI
[13] = ATCC29213, read-out: MIC, No EPI, antibacterial agent alone

CCn1cc(C(=O)O)c(=O)c2cc(F)c(N3CCNCC3)cc21 [norfloxacin, reference compound]
MIC ([1]; E. faecalis clinical isolate 1): 4 µg/mL
MIC ([1]; E. faecalis clinical isolate 2): 4 µg/mL
MIC ([1]; E. faecalis clinical isolate 3): 128 µg/mL
MIC ([1]; E. faecalis clinical isolate 4): 128 µg/mL
MIC ([1]; E. faecalis clinical isolate 5): 64 µg/mL
MIC ([1]; E. faecalis clinical isolate 6): 2 µg/mL
MIC ([1]; E. faecalis clinical isolate 7): 2 µg/mL
MIC ([1]; E. faecalis clinical isolate 8): 128 µg/mL
MIC ([1]; E. faecalis clinical isolate 9): 4 µg/mL
MIC ([1]; E. faecalis clinical isolate 10): 64 µg/mL
MIC ([1]; E. faecalis clinical isolate 11): 128 µg/mL
MIC ([1]; E. faecalis clinical isolate 12): 2 µg/mL
MIC ([1]; E. faecalis clinical isolate 13): 2 µg/mL
MIC ([1]; E. faecalis clinical isolate 14): 4 µg/mL
MIC ([1]; E. faecalis clinical isolate 15): 4 µg/mL
MIC ([1]; E. faecalis clinical isolate 16): 4 µg/mL
MIC ([1]; E. faecalis clinical isolate 17): 4 µg/mL
MIC ([1]; E. faecalis clinical isolate 18): 128 µg/mL
MIC ([1]; E. faecalis clinical isolate 19): 4 µg/mL
MIC ([1]; E. faecalis clinical isolate 20): 4 µg/mL
MIC ([1]; E. faecalis clinical isolate 21): 2 µg/mL
MIC ([1]; E. faecalis clinical isolate 22): 128 µg/mL
MIC ([1]; E. faecalis clinical isolate 23): 64 µg/mL
MIC ([1]; E. faecalis clinical isolate 24): > 256 µg/mL
MIC ([1]; E. faecalis clinical isolate 25): 128 µg/mL
MIC ([1]; E. faecalis clinical isolate 26): > 256 µg/mL
MIC ([2]; S. aureus clinical isolate 1): 16 µg/mL
MIC ([2]; S. aureus clinical isolate 2): 1 µg/mL
MIC ([2]; S. aureus clinical isolate 3): 1 µg/mL
MIC ([2]; S. aureus clinical isolate 4): 256 µg/mL
MIC ([2]; S. aureus clinical isolate 5): 1 µg/mL
MIC ([2]; S. aureus clinical isolate 6): 32 µg/mL
MIC ([2]; S. aureus clinical isolate 7): 2 µg/mL
MIC ([2]; S. aureus clinical isolate 8): 4 µg/mL
MIC ([2]; S. aureus clinical isolate 9): 1 µg/mL
MIC ([2]; S. aureus clinical isolate 10): 64 µg/mL
MIC ([2]; S. aureus clinical isolate 11): 64 µg/mL
MIC ([2]; S. aureus clinical isolate 12): 1 µg/mL
MIC ([2]; S. aureus clinical isolate 13): 256 µg/mL
MIC ([2]; S. aureus clinical isolate 14): 256 µg/mL
MIC ([2]; S. aureus clinical isolate 15): 256 µg/mL
MIC [3, 8]: 8 µg/mL
MIC (S. aureus ATCC 29213 [4]; [9]): 1 µg/mL
MIC (S. aureus ATCC 29213 [4]; [10]): 0.5 µg/mL
MIC in the presence of 4X MEC of EPI, VX-710 (S. aureus ATCC 29213 [4]): 0.25 µg/mL
MIC in the presence of 4X MEC of EPI, VX-853 (S. aureus ATCC 29213 [4]): 0.5 µg/mL
MIC in the presence of 4X MEC of EPI, reserpine (S. aureus ATCC 29213 [4]): 0.5 µg/mL
MIC (S. aureus SA-8325-4): 1 µg/mL
MIC [5]: 0.5 µg/mL

COc1cc(C(=O)C(=O)N(C)C(Cc2ccccc2)C(=O)N(Cc2ccccc2)C(CCc2ccncc2)CCc2ccncc2)cc(OC)c1OC (stereo not drawn) [VRT-013661]
MEC of EPI (S. aureus ATCC 29213 [6]): 3.1 µg/mL
MIC of EPI (S. aureus ATCC 29213 [4]; S. aureus ATCC 29213, EPI alone): >100 µg/mL
Fold-reduction in EtBr MIC (S. aureus ATCC 29213 [4]; [11]): 4
MIC of EtBr with EPI (S. aureus ATCC 29213 [4]; [11]): 1.6 µg/mL

COc1c(N2CCNC(C)C2)c(F)cc2c(=O)c(C(=O)O)cn(C3CC3)c12 (stereo not drawn) [gatifloxacin, reference compound]
MIC [7, 12]: 0.5 µg/mL
MIC [7, 8]: 0.5 µg/mL
MIC [3, 12]: 1 µg/mL
MIC [3, 8]: 1 µg/mL
MIC (S. aureus ATCC 29213 [4]; ATCC29213, read-out: MIC of Gatifloxacin without EPI, S. aureus ATCC 29213 (Table 4)): 0.125 µg/mL
MIC (S. aureus ATCC 29213 [4]; [10]): 0.063 µg/mL
MIC (S. aureus ATCC 29213 [4]; [13]): 0.125 µg/mL
MIC in the presence of 4X MEC of EPI, VX-710 (S. aureus ATCC 29213 [4]): 0.125 µg/mL
MIC in the presence of 4X MEC of EPI, VX-853 (S. aureus ATCC 29213 [4]): 0.125 µg/mL
MIC in the presence of 4X MEC of EPI, reserpine (S. aureus ATCC 29213 [4]): 0.125 µg/mL
MIC (S. aureus SA-8325-4): 0.125 µg/mL
MIC [5]: 0.063 µg/mL

C[C@H]1COc2c(N3CCN(C)CC3)c(F)cc3c(=O)c(C(=O)O)cn1c23 [levofloxacin]
MIC (S. aureus ATCC 29213 [4]; [9]): 0.25 µg/mL
MIC in the presence of 4X MEC of EPI, VX-710 (S. aureus ATCC 29213 [4]): 0.125 µg/mL
MIC in the presence of 4X MEC of EPI, VX-853 (S. aureus ATCC 29213 [4]): 0.125 µg/mL
MIC in the presence of 4X MEC of EPI, reserpine (S. aureus ATCC 29213 [4]): 0.125 µg/mL
MIC (S. aureus SA-8325-4): 0.25 µg/mL
MIC [5]: 0.125 µg/mL

CC[n+]1c(-c2ccccc2)c2cc(N)ccc2c2ccc(N)cc21 [EtBr, Ethidium bromide]
MIC [7, 8]: 25 µg/mL
MIC [3, 8]: 12.5 µg/mL
MIC (E. faecalis ATCC 29212): 6.3 µg/mL
MIC (S. pneumoniae ATCC 10015): 2 µg/mL
MIC of EtBr without EPI (S. aureus ATCC 29213 [4]; S. aureus ATCC 29213): 6.2 µg/mL
MIC (S. aureus ATCC 29213 [4]; ATCC29213, read-out: MIC of EtBr without EPI, S. aureus ATCC 29213): 6.3 µg/mL
MIC (S. aureus ATCC 29213 [4]; [10]): 6.2 µg/mL
MIC (S. aureus ATCC 29213 [4]; [13]): 6.2 µg/mL
MIC in the presence of 4X MEC of EPI, VX-710 (S. aureus ATCC 29213 [4]): 0.2 µg/mL
MIC in the presence of 4X MEC of EPI, VX-853 (S. aureus ATCC 29213 [4]): 1.6 µg/mL
MIC in the presence of 4X MEC of EPI, reserpine (S. aureus ATCC 29213 [4]): 1.6 µg/mL
MIC (S. aureus SA-8325-4): 3.1 µg/mL
MIC [5]: 6.2 µg/mL
